Assay results reported in PubChem BioAssay AID256 (DTP/NCI, 2004).
Toxic doses and inconclusive results are not listed.

System: CD2F1 mice, L1210 leukemia ip, survival T/C
Assay: NCI In Vivo Anticancer Drug Screen. Data for tumor model L1210 Leukemia (intraperitoneal) in CD2F1 (CDF1) mice
Conditions: higher = longer survival
How it was run: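 Implant tumor; dose compound or vehicle; measure endpoint in both groups; report treated divided by control.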

[1] = endpoint: mean survival time, dose: 25.0 mg/kg/injection, schedule: Q04DX003 (ip), vehicle: saline
[2] = endpoint: mean survival time, dose: 100.0 mg/kg/injection, schedule: Q01DX009 (ip), vehicle: saline
[3] = endpoint: mean survival time, dose: 100.0 mg/kg/injection, schedule: Q04DX003 (ip), vehicle: saline with Tween-80
[4] = endpoint: mean survival time, dose: 200.0 mg/kg/injection, schedule: Q04DX003 (ip), vehicle: saline with Tween-80
[5] = endpoint: mean survival time, dose: 12.5 mg/kg/injection, schedule: Q01DX009 (ip), vehicle: saline with Tween-80
[6] = endpoint: mean survival time, dose: 25.0 mg/kg/injection, schedule: Q01DX009 (ip), vehicle: saline with Tween-80
[7] = endpoint: mean survival time, dose: 100.0 mg/kg/injection, schedule: Q04DX002 (ip), vehicle: saline with Tween-80
[8] = endpoint: mean survival time, dose: 200.0 mg/kg/injection, schedule: Q04DX002 (ip), vehicle: saline with Tween-80
[9] = endpoint: mean survival time, dose: 400.0 mg/kg/injection, schedule: Q04DX002 (ip), vehicle: saline with Tween-80
[10] = endpoint: mean survival time, dose: 400.0 mg/kg/injection, schedule: Q04DX003 (ip), vehicle: saline with Tween-80

SMILES: Cc1cc2sc(C)[n+](CCCOS(=O)(=O)[O-])c2cc1C
- T/C (endpoint: mean survival time, dose: 75.0 mg/kg/injection, schedule: Q01DX001 (ip), vehicle: saline): 104 % of control
- T/C (endpoint: mean survival time, dose: 150.0 mg/kg/injection, schedule: Q01DX001 (ip), vehicle: saline): 104 % of control
- T/C (endpoint: mean survival time, dose: 300.0 mg/kg/injection, schedule: Q01DX001 (ip), vehicle: saline): 96 % of control

SMILES: CC(=O)Nc1ccc2nc3ccc(NC(C)=O)cc3[n+](-c3ccccc3)c2c1
- T/C (endpoint: mean survival time, dose: 16.0 mg/kg/injection, schedule: Q01DX008 (iv), vehicle: saline): 98 % of control
- T/C (endpoint: mean survival time, dose: 25.0 mg/kg/injection, schedule: Q03DX003 (ip), vehicle: saline): 118 % of control
- T/C [1]: 123 % of control
- T/C (endpoint: mean survival time, dose: 32.0 mg/kg/injection, schedule: Q01DX008 (iv), vehicle: saline): 100 % of control
- T/C (endpoint: mean survival time, dose: 50.0 mg/kg/injection, schedule: Q01DX007 (ip), vehicle: saline): 155 % of control
- T/C (endpoint: mean survival time, dose: 50.0 mg/kg/injection, schedule: Q01DX009 (ip), vehicle: saline): 157 % of control
- T/C (endpoint: mean survival time, dose: 64.0 mg/kg/injection, schedule: Q01DX008 (iv), vehicle: saline): 115 % of control
- T/C (endpoint: mean survival time, dose: 100.0 mg/kg/injection, schedule: Q01DX007 (ip), vehicle: saline): 183 % of control
- T/C [2]: 155 % of control

SMILES: O=C1C(=O)C(Br)=C(Br)C(Br)=C1Br
- T/C [3]: 91 % of control
- T/C [4]: 91 % of control

SMILES: CCCC1CC[N-]CC1.CCCC1CC[N-]CC1.[Br][Pt+2]([Br])([Br])[Br]
- T/C (endpoint: mean survival time, dose: 6.25 mg/kg/injection, schedule: Q01DX009 (ip), vehicle: water): 94 % of control
- T/C (endpoint: mean survival time, dose: 12.5 mg/kg/injection, schedule: Q01DX009 (ip), vehicle: water): 96 % of control
- T/C (endpoint: mean survival time, dose: 25.0 mg/kg/injection, schedule: Q01DX009 (ip), vehicle: water): 97 % of control
- T/C (endpoint: mean survival time, dose: 50.0 mg/kg/injection, schedule: Q01DX009 (ip), vehicle: water): 91 % of control
- T/C (endpoint: mean survival time, dose: 100.0 mg/kg/injection, schedule: Q04DX003 (ip), vehicle: water): 90 % of control

SMILES: CCC(=O)c1cc(O)ccc1O
- T/C (endpoint: mean survival time, dose: 50.0 mg/kg/injection, schedule: Q01DX009 (ip), vehicle: other): 109 % of control
- T/C (endpoint: mean survival time, dose: 100.0 mg/kg/injection, schedule: Q01DX001 (ip), vehicle: saline): 101 % of control
- T/C (endpoint: mean survival time, dose: 100.0 mg/kg/injection, schedule: Q01DX009 (ip), vehicle: other): 109 % of control
- T/C (endpoint: mean survival time, dose: 200.0 mg/kg/injection, schedule: Q01DX001 (ip), vehicle: saline): 101 % of control
- T/C (endpoint: mean survival time, dose: 200.0 mg/kg/injection, schedule: Q01DX009 (ip), vehicle: other): 108 % of control
- T/C (endpoint: mean survival time, dose: 400.0 mg/kg/injection, schedule: Q01DX001 (ip), vehicle: saline): 102 % of control

SMILES: CCN(CC)C(=O)N1CCN(c2ccccc2)CC1
- T/C (endpoint: mean survival time, dose: 100.0 mg/kg/injection, schedule: Q04DX003 (ip), vehicle: saline): 98 % of control
- T/C (endpoint: mean survival time, dose: 200.0 mg/kg/injection, schedule: Q04DX003 (ip), vehicle: saline): 93 % of control

SMILES: Cc1ccc(S(=O)(=O)Cl)cc1
- T/C (endpoint: mean survival time, dose: 100.0 mg/kg/injection, schedule: Q04DX002 (ip), vehicle: saline): 91 % of control
- T/C (endpoint: mean survival time, dose: 200.0 mg/kg/injection, schedule: Q04DX002 (ip), vehicle: saline): 100 % of control

SMILES: O/N=C1\c2ccccc2-c2ccc(F)cc21
- T/C (endpoint: mean survival time, dose: 50.0 mg/kg/injection, schedule: Q01DX001 (ip), vehicle: carboxymethylcellulose (CMC)): 104 % of control
- T/C (endpoint: mean survival time, dose: 100.0 mg/kg/injection, schedule: Q01DX001 (ip), vehicle: carboxymethylcellulose (CMC)): 108 % of control
- T/C (endpoint: mean survival time, dose: 200.0 mg/kg/injection, schedule: Q01DX001 (ip), vehicle: carboxymethylcellulose (CMC)): 104 % of control
- T/C (endpoint: mean survival time, dose: 400.0 mg/kg/injection, schedule: Q01DX001 (ip), vehicle: carboxymethylcellulose (CMC)): 102 % of control

SMILES: Cc1ccc(NC(=O)c2cccc(C(=O)Nc3ccc(C)cc3C)c2)c(C)c1
- T/C [5]: 94 % of control
- T/C [6]: 90 % of control
- T/C (endpoint: mean survival time, dose: 50.0 mg/kg/injection, schedule: Q01DX009 (ip), vehicle: saline with Tween-80): 89 % of control

SMILES: N#CCCCN1CCCCC1
- T/C (endpoint: mean survival time, dose: 6.25 mg/kg/injection, schedule: Q01DX009 (ip), vehicle: saline with Tween-80): 103 % of control
- T/C (endpoint: mean survival time, dose: 6.25 mg/kg/injection, schedule: Q04DX003 (ip), vehicle: saline): 89 % of control
- T/C [5]: 97 % of control
- T/C (endpoint: mean survival time, dose: 12.5 mg/kg/injection, schedule: Q04DX003 (ip), vehicle: saline): 98 % of control
- T/C [6]: 100 % of control
- T/C [1]: 93 % of control

SMILES: CCNCC
- T/C [2]: 100 % of control
- T/C (endpoint: mean survival time, dose: 200.0 mg/kg/injection, schedule: Q01DX009 (ip), vehicle: saline): 94 % of control
- T/C (endpoint: mean survival time, dose: 400.0 mg/kg/injection, schedule: Q01DX009 (ip), vehicle: saline): 105 % of control

SMILES: CC(C)=CCCc1ccc2c(c1)C(=O)c1ccccc1C2=O
- T/C [7]: 88 % of control
- T/C [8]: 92 % of control
- T/C [9]: 96 % of control

SMILES: CCCCCC[Se][Se]CCCCCC
- T/C (endpoint: median survival time, dose: 1.56 mg/kg/injection, schedule: Q01DX009 (ip), vehicle: Klucel (hydroxypropylcellulose) (HPC)): 98 % of control
- T/C (endpoint: median survival time, dose: 3.12 mg/kg/injection, schedule: Q01DX009 (ip), vehicle: Klucel (hydroxypropylcellulose) (HPC)): 100 % of control
- T/C (endpoint: median survival time, dose: 6.25 mg/kg/injection, schedule: Q01DX009 (ip), vehicle: Klucel (hydroxypropylcellulose) (HPC)): 101 % of control
- T/C (endpoint: median survival time, dose: 12.5 mg/kg/injection, schedule: Q01DX009 (ip), vehicle: Klucel (hydroxypropylcellulose) (HPC)): 97 % of control

SMILES: COC1=CC=C2[C@@H]3Cc4ccc(OC)c5c4[C@]2(CCN3CCCl)C1O5 (some centres not stated)
- T/C (endpoint: mean survival time, dose: 25.0 mg/kg/injection, schedule: Q04DX003 (ip), vehicle: DMSO): 107 % of control
- T/C (endpoint: mean survival time, dose: 50.0 mg/kg/injection, schedule: Q04DX003 (ip), vehicle: DMSO): 104 % of control
- T/C (endpoint: mean survival time, dose: 100.0 mg/kg/injection, schedule: Q04DX003 (ip), vehicle: DMSO): 102 % of control

SMILES: N/C(=N\N=C\c1c(F)c(F)c(F)c(F)c1F)N[N+](=O)[O-]
- T/C [3]: 106 % of control
- T/C [4]: 98 % of control
- T/C [10]: 96 % of control

SMILES: CC(C(=O)c1ccc(-c2ccccc2)cc1)C(Cl)c1ccccc1 (configuration not stated)
- T/C [3]: 95 % of control
- T/C [4]: 95 % of control
- T/C [10]: 100 % of control

SMILES: O=C(Nc1ccccc1[N+](=O)[O-])OC/C=C/c1ccccc1
- T/C [7]: 91 % of control
- T/C [8]: 91 % of control
- T/C [9]: 87 % of control

SMILES: N#CC(/C=C/c1ccccc1)NCC(O)c1ccccc1 (configuration not stated)
- T/C (endpoint: mean survival time, dose: 100.0 mg/kg/injection, schedule: Q01DX001 (ip), vehicle: saline with Tween-80): 97 % of control
- T/C (endpoint: mean survival time, dose: 200.0 mg/kg/injection, schedule: Q01DX001 (ip), vehicle: saline with Tween-80): 101 % of control
- T/C (endpoint: mean survival time, dose: 400.0 mg/kg/injection, schedule: Q01DX001 (ip), vehicle: saline with Tween-80): 93 % of control

SMILES: Cn1c(=O)c2c(nc(-c3ccccc3)n2O)n(C)c1=O
- T/C (endpoint: mean survival time, dose: 12.5 mg/kg/injection, schedule: Q01DX005 (ip), vehicle: other): 97 % of control
- T/C (endpoint: mean survival time, dose: 25.0 mg/kg/injection, schedule: Q01DX005 (ip), vehicle: other): 105 % of control
- T/C (endpoint: mean survival time, dose: 50.0 mg/kg/injection, schedule: Q01DX005 (ip), vehicle: other): 92 % of control
- T/C (endpoint: mean survival time, dose: 100.0 mg/kg/injection, schedule: Q01DX005 (ip), vehicle: other): 97 % of control

SMILES: CCCCCCCCCCCCCCCCS(=O)CC(O)COC(=O)c1ccc(C(=O)OCC(O)CS(=O)CCCCCCCCCCCCCCCC)cc1 (configuration not stated)
- T/C (endpoint: mean survival time, dose: 12.5 mg/kg/injection, schedule: Q01DX009 (ip), vehicle: saline + Tween-80 + alcohol): 96 % of control
- T/C (endpoint: mean survival time, dose: 12.5 mg/kg/injection, schedule: Q01DX009 (ip), vehicle: saline + alcohol): 91 % of control
- T/C (endpoint: mean survival time, dose: 25.0 mg/kg/injection, schedule: Q01DX009 (ip), vehicle: saline + Tween-80 + alcohol): 88 % of control
- T/C (endpoint: mean survival time, dose: 25.0 mg/kg/injection, schedule: Q01DX009 (ip), vehicle: saline + alcohol): 105 % of control
- T/C (endpoint: mean survival time, dose: 50.0 mg/kg/injection, schedule: Q01DX009 (ip), vehicle: saline + Tween-80 + alcohol): 90 % of control
- T/C (endpoint: mean survival time, dose: 50.0 mg/kg/injection, schedule: Q01DX009 (ip), vehicle: saline + alcohol): 105 % of control
- T/C (endpoint: mean survival time, dose: 100.0 mg/kg/injection, schedule: Q01DX009 (ip), vehicle: saline + Tween-80 + alcohol): 107 % of control
- T/C (endpoint: mean survival time, dose: 100.0 mg/kg/injection, schedule: Q01DX009 (ip), vehicle: saline + alcohol): 91 % of control
- T/C (endpoint: mean survival time, dose: 200.0 mg/kg/injection, schedule: Q01DX009 (ip), vehicle: saline + Tween-80 + alcohol): 107 % of control
- T/C (endpoint: mean survival time, dose: 200.0 mg/kg/injection, schedule: Q01DX009 (ip), vehicle: saline + alcohol): 97 % of control
- T/C (endpoint: mean survival time, dose: 400.0 mg/kg/injection, schedule: Q01DX009 (ip), vehicle: saline + alcohol): 105 % of control
